Experimental data as given in US9487749B2 (priority 2009, dated 2016).
Values joined by “and” are separate entries in the source; they are usually repeats but may differ in a detail not shown here. Equal entries are not always repeated.

Experiments:
Assay type in all cases: cell-based
[1] = system: Lactobacillus acidophilus; experiment: Lactobacillus acidophilus milk growth in simulated gastric acid supplemented with MSM; conditions: for Log Growth of L. acidophilus in milk average / Log Growth of L. acidophilus in milk in duplicate: simulated gastric acid pH 1.2
[2] = system: Swine-like H1N1 Influenza A virus strain A/California/04/2009
[3] = system: White Labs Edinburgh Ale yeast; experiment: Fermentation efficiency in production of beer (Scotch Ale) with 0.5% MSM; conditions: for F.G. (Adjusted for Alc and Temp): 0.5% MSM fermentor
From the text: This positive impact includes such organisms as fungi, yeast, and bacteria. Yeast cultures are involved in the production of beer during the fermentation process to produce ethanol and carbon dioxide. […] Wort is the liquid extracted from the mashing process during the brewing of beer or whisky. Wort contains the sugars that are fermented by the brewing yeast to produce alcohol. […] This Procedure is detailed below. […] (1) glass jugs, airlocks and funnel were thoroughly cleaned and then rinsed with beer sanitizer; (2) 1000 mLs of water was boiled then 100 grams of DME was added; (3) sample was boiled for 10 minutes; […] The Treatment Starter batch was then placed in a sanitized 64 ounce glass jug using to which 1-vial of White Labs Edinburgh Ale yeast was added. The airlock was applied and the entire vessel was placed in a dark room at room temperature for 48 hours. […] (1) glass jugs, airlocks and funnel were thoroughly cleaned and then rinsed with beer sanitizer; (2) 1000 mLs of water was boiled then 100 grams of DME was added; (3) sample was boiled for 10 minutes; (4) sample was removed from heat; and (5) solution was allowed to cool to 72° F. The Treatment Starter batch was then placed in a sanitized 64 ounce glass jug using to which 1-vial of White Labs Edinburgh Ale yeast was added. The airlock was applied and the entire vessel was placed in a dark room at room temperature for 48 hours. […] Materials to prepare the mash included the following: 18 lb of American 2-Row base grain; 3 lb of Crystal Malt 40 L specialty grain; 1 lb […] specialty grain; and water. A mash tun (a vessel used in the mashing process to convert the starches in crushed grains into sugars for fermentation) and Brew kettle were cleaned with powdered brewers wash and rinsed thoroughly. The mash tun was then sanitized (San Star Brewing Sanitizer). The following grains were crushed and milled for mashing: 18 lb of American 2-Row base grain; 3 lb of Crystal Malt 40 L specialty grain; and 1 lb […] specialty grain. […] The crushed grains were then added and the solution was mixed thoroughly. The lid was attached and the solution allowed to mash for 60 minutes. […] Strike water was preheated to 168° F., added to the mash tun and mix thoroughly with grain. The mixture was allowed to incubate for 10 minutes. […] After preparing the mash, the brewing process was started. […] Equipment was cleaned thoroughly with PBW. The wort chiller and filtered air stone were sanitized with brewing sanitizer (San Star Brewing Sanitizer). […] At 30 minutes of boil, a second aliquot (0.5 ounces) of Cascade hops was added. At 40 minutes of boil, third aliquot (0.5 ounces) of Cascade hops was added as well as 2 teaspoons of […] Moss. At 50 minutes of boil, a fourth aliquot (0.5 ounces) of Cascade hops was added. […] Each fermentor was Brix tested every 24 hours for 21 days. Both fermentors were aerated for 25 minutes with sanitized filtered air stone. MSM infused yeast was pitched into treatment fermentor vessel while unaltered yeast was pitched into control fermentor vessel. Blow-off tubes were attached to both fermentors and fermentation was allowed to proceed for 21 days.

## CS(C)(=O)=O [MSM, Methylsulfonylmethane]
[1]; 5.0% MSM, 24 hours
  increase in log growth from previous time point: 0.23 logs
[1]; 5.0% MSM, Hour 48
  decrease in log growth from previous time point: 0.33 logs
[1]; 5% MSM, hour 0
  Log Growth of L. acidophilus in milk average: 0.41 log
[1]; 5% MSM, hour 3
  Log Growth of L. acidophilus in milk average: 0.41 log
[1]; 5% MSM, hour 6
  Log Growth of L. acidophilus in milk in duplicate: 0.82 log and 1 log
  Log Growth of L. acidophilus in milk average: 0.91 log
[1]; 5% MSM, hour 9
  Log Growth of L. acidophilus in milk in duplicate: 0.52 log
  Log Growth of L. acidophilus in milk average: 0.52 log
[1]; 5% MSM, hour 12
  Log Growth of L. acidophilus in milk average: 1.10 log
[1]; 5% MSM, hour 15
  Log Growth of L. acidophilus in milk in duplicate: 1.43 log
  Log Growth of L. acidophilus in milk average: 1.43 log
[1]; 5% MSM, hour 24
  Log Growth of L. acidophilus in milk in duplicate: 1.67 log and 1.64 log
  Log Growth of L. acidophilus in milk average: 1.66 log
[1]; 5% MSM, hour 48
  Log Growth of L. acidophilus in milk in duplicate: 1.22 log and 1.43 log
  Log Growth of L. acidophilus in milk average: 1.33 log
[1]; 5.0% MSM, listed as order: hour 15, maximum vs control maximum
  log growth higher than control: 0.45 logs and 0.68 logs
[1]; […] MSM (so in the source), 24 hours
  increase in log growth from previous time point: 0.30 logs
[1]; […] MSM, 24 hours
  decrease in log growth from previous time point: 0.11 logs
[1]; […] MSM, Hour 48
  decrease in log growth from previous time point: 0.38 logs
[1]; […] MSM, hour 0
  Log Growth of L. acidophilus in milk in duplicate: 0 log
  Log Growth of L. acidophilus in milk average: 0 log
[1]; […] MSM, hour 9
  Log Growth of L. acidophilus in milk average: 0.41 log
[1]; […] and 5.0% MSM
  increase in logs from hour 15 to 24: ≥ 0.24 logs
[2]
  Average Log Stimulation: 0.17 log10
  Average Percent Stimulation: 32.39%
  Average TCID50: 3.67 log10 and 4.42 log10 and 4.67 log10 and 5.00 log10 and 4.58 log10 and 4.17 log10
  Log Stimulation: 0.17 log10
  Percent Stimulation: 32.39%
  TCID50: 3.75 log10 and 3.50 log10 and 4.00 log10 and 4.50 log10 and 4.25 log10 and 4.75 log10 and 5.00 log10
  log10 reduction: 0.66 log10 and 0.41 log10
  reduction of virus population: more than 1.0 log10
[3]; Day 1
  F.G. (Adjusted for Alc and Temp): 1.026
[3]; Day 2
  F.G. (Adjusted for Alc and Temp): 1.018
[3]; Day 3
  F.G. (Adjusted for Alc and Temp): 1.016
[3]; Day 4
  F.G. (Adjusted for Alc and Temp): 1.016
[3]; Day 5
  F.G. (Adjusted for Alc and Temp): 1.015
[3]; Day 6
  F.G. (Adjusted for Alc and Temp): 1.015
[3]; Day 7
  F.G. (Adjusted for Alc and Temp): 1.015
[3]; Day 8
  F.G. (Adjusted for Alc and Temp): 1.015
[3]; Day 9
  F.G. (Adjusted for Alc and Temp): 1.015
[3]; Day 10
  F.G. (Adjusted for Alc and Temp): 1.015
[3]; Day 11
  F.G. (Adjusted for Alc and Temp): 1.015
[3]; Day 12
  F.G. (Adjusted for Alc and Temp): 1.015
[3]; Day 13
  F.G. (Adjusted for Alc and Temp): 1.015
[3]; Day 14
  F.G. (Adjusted for Alc and Temp): 1.015
[3]; Day 15
  F.G. (Adjusted for Alc and Temp): 1.015
[3]; Day 16
  F.G. (Adjusted for Alc and Temp): 1.015
[3]; Day 17
  F.G. (Adjusted for Alc and Temp): 1.015
[3]; Day 18
  F.G. (Adjusted for Alc and Temp): 1.015
[3]; Day 19
  F.G. (Adjusted for Alc and Temp): 1.015
[3]; Day 20
  F.G. (Adjusted for Alc and Temp): 1.015
[3]; Day 21
  F.G. (Adjusted for Alc and Temp): 1.015
[3]; 0.5% MSM treatment batch
  time to maximum fermentation: 5 days
[3]; 0.5% MSM treatment batch vs control (6 days)
  sooner time of completion: 17-25%
[3]; fermentor with 0.5% MSM
  time to activity: 3.5 h
[3]; fermentor with 0.5% MSM (3.5 hours compared to 9 hours)
  activity sooner than the control: 58%
[3]; yeast starter with 0.5% MSM (2 hours compared to 10 hours)
  activity sooner than the control: 80%
